Laboratory results from patent publication US10913727B2, “Modulators of the integrated stress pathway” (Calico Life Sciences LLC, priority 2016, dated 2021).

System: HEK293T cells carrying the ATF4 luciferase reporter
Assay: ATF4-Luc assay, in vitro model of Vanishing Cell White Matter Disease (VWMD)
Format: cell-based
Details: Homo sapiens, HEK-293T, 1 μg/mL tunicamycin, 7 hours, One Glo luminescence
How it was run: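 Compound at 200 nM and tunicamycin at 1 μg/mL were given together for 7 h to HEK293T cells stably transduced with an ATF4 5′-UTR-driven firefly luciferase reporter. Read-out by luminescence, reported as EC50.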

With `Cn1cnc2cc(C(=O)NC34CC(NC(=O)COc5ccc(Cl)c(F)c5)(C3)C4)ccc2c1=O` [Compound 342, N-{3-[2-(4-chloro-3-fluorophenoxy)acetamido]bicyclo[1.1.1]pentan-1-yl}-3-methyl-4-oxo-3,4-dihydroquinazoline-7-carboxamide] the EC50 was 250 to 1000 nM.
`CCCn1ccc(C(=O)NC23CC(NC(=O)COc4ccc(Cl)c(F)c4)(C2)C3)n1` [Compound 343, N-{3-[2-(4-chloro-3-fluorophenoxy)acetamido]bicyclo[1.1.1]pentan-1-yl}-1-propyl-1H-pyrazole-3-carboxamide] was tested, and the EC50 was 50 to 250 nM.
`O=C(COc1ccc(Cl)c(F)c1)NC12CC(NC(=O)c3cnc(-c4ccccc4)o3)(C1)C2` [Compound 344, N-{3-[2-(4-chloro-3-fluorophenoxy)acetamido]bicyclo[1.1.1]pentan-1-yl}-2-phenyl-1,3-oxazole-5-carboxamide] showed an EC50 of under 50 nM.
For `Cn1nc(C(=O)NC23CC(NC(=O)COc4ccc(Cl)c(F)c4)(C2)C3)cc1-c1ccccc1` [Compound 345, N-{3-[2-(4-chloro-3-fluorophenoxy)acetamido]bicyclo[1.1.1]pentan-1-yl}-1-methyl-5-phenyl-1H-pyrazole-3-carboxamide], the EC50 was 50 to 250 nM.
For `O=C(COc1ccc(Cl)c(F)c1)NC12CC(NC(=O)c3noc4ccccc34)(C1)C2` [Compound 346, N-{3-[2-(4-chloro-3-fluorophenoxy)acetamido]bicyclo[1.1.1]pentan-1-yl}-1,2-benzoxazole-3-carboxamide], the EC50 was 250 to 1000 nM.
Compound `O=C(COc1ccc(Cl)c(F)c1)NC12CC(NC(=O)c3nc4ccccc4o3)(C1)C2` [Compound 347, N-{3-[2-(4-chloro-3-fluorophenoxy)acetamido]bicyclo[1.1.1]pentan-1-yl}-1,3-benzoxazole-2-carboxamide] has an EC50 of 250 to 1000 nM.
For `CC(C)Cc1cc(C(=O)NC23CC(NC(=O)COc4ccc(Cl)c(F)c4)(C2)C3)on1` [Compound 348, N-{3-[2-(4-chloro-3-fluorophenoxy)acetamido]bicyclo[1.1.1]pentan-1-yl}-3-(2-methylpropyl)-1,2-oxazole-5-carboxamide], the EC50 was 50 to 250 nM.
`O=C(COc1ccc(F)c(F)c1)NC12CCC(NC(=O)c3ccc(C(F)(F)F)cn3)(CC1)C(O)C2` (stereo not drawn) [Compound 349, N-{4-[2-(3,4-difluorophenoxy)acetamido]-2-hydroxybicyclo[2.2.2]octan-1-yl}-5-(trifluoromethyl)pyridine-2-carboxamide] was tested, and the EC50 was 250 to 1000 nM.
Compound `CC(C)c1cc(C(=O)NC23CC(NC(=O)COc4ccc(Cl)c(F)c4)(C2)C3)on1` [Compound 350, N-{3-[2-(4-chloro-3-fluorophenoxy)acetamido]bicyclo[1.1.1]pentan-1-yl}-3-(propan-2-yl)-1,2-oxazole-5-carboxamide] has an EC50 of 250 to 1000 nM.
`CCOc1ccc(C(=O)NC23CC(NC(=O)COc4ccc(Cl)c(F)c4)(C2)C3)cc1` [Compound 351, N-{3-[2-(4-chloro-3-fluorophenoxy)acetamido]bicyclo[1.1.1]pentan-1-yl}-4-ethoxybenzamide] was tested, and the EC50 was 50 to 250 nM.
`CN(C(=O)c1cnc(C(F)F)cn1)C12CC(NC(=O)COc3ccc(Cl)c(F)c3)(C1)C2` [Compound 352, N-{3-[2-(4-chloro-3-fluorophenoxy)acetamido]bicyclo[1.1.1]pentan-1-yl}-5-(difluoromethyl)-N-methylpyrazine-2-carboxamide] showed an EC50 of 50 to 250 nM.
`CC(C)(C)c1cc(C(=O)NC23CCC(NC(=O)COc4ccc(Cl)c(F)c4)(CC2)C(O)C3)on1` (stereo not drawn) [Compound 353, 3-tert-butyl-N-{4-[2-(4-chloro-3-fluorophenoxy)acetamido]-3-hydroxybicyclo[2.2.2]octan-1-yl}-1,2-oxazole-5-carboxamide] was tested, and the EC50 was 50 to 250 nM.
In the case of `Cc1nnc(C(=O)NC23CC(NC(=O)COc4ccc(Cl)c(F)c4)(C2)C3)o1` [Compound 354, N-{3-[2-(4-chloro-3-fluorophenoxy)acetamido]bicyclo[1.1.1]pentan-1-yl}-5-methyl-1,3,4-oxadiazole-2-carboxamide], the EC50 is reported as 1000 to 2000 nM.
For `Cc1cc(C(=O)N(C)C23CC(NC(=O)COc4ccc(Cl)c(F)c4)(C2)C3)on1` [Compound 355, N-{3-[2-(4-chloro-3-fluorophenoxy)acetamido]bicyclo[1.1.1]pentan-1-yl}-N,3-dimethyl-1,2-oxazole-5-carboxamide], the EC50 was 1000 to 2000 nM.
`O=C(COc1ccc(Cl)c(F)c1)NC12CCC(NC(=O)c3ccccn3)(C1)C2` [Compound 356, N-{4-[2-(4-chloro-3-fluorophenoxy)acetamido]bicyclo[2.1.1]hexan-1-yl}pyridine-2-carboxamide] was tested, and the EC50 was over 2000 nM.
For `CCn1nc(C)cc1C(=O)NC12CC(NC(=O)COc3ccc(Cl)c(F)c3)(C1)C2` [Compound 359, N-{3-[2-(4-chloro-3-fluorophenoxy)acetamido]bicyclo[1.1.1]pentan-1-yl}-1-ethyl-3-methyl-1H-pyrazole-5-carboxamide], the EC50 was 250 to 1000 nM.
For `O=C(COc1ccc(Cl)c(F)c1)NC12CC(Nc3nc4ccccc4o3)(C1)C2` [Compound 360, N-{3-[(1,3-benzoxazol-2-yl)amino]bicyclo[1.1.1]pentan-1-yl}-2-(4-chloro-3-fluorophenoxy)acetamide], the EC50 was over 2000 nM.
Work on `Cn1ccc(C(=O)NC23CCC(NC(=O)COc4ccc(Cl)c(F)c4)(CC2)C(O)C3)n1` (stereo not drawn) [Compound 361, N-{4-[2-(4-chloro-3-fluorophenoxy)acetamido]-3-hydroxybicyclo[2.2.2]octan-1-yl}-1-methyl-1H-pyrazole-3-carboxamide] yielded an EC50 of 50 to 250 nM.
Work on `CN(C(=O)COc1ccc(Cl)c(F)c1)C12CC(N(C)C(=O)c3cnc(C(F)F)cn3)(C1)C2` [Compound 362, N-(3-{[(4-chloro-3-fluorophenoxy)acetyl](methyl)amino}bicyclo[1.1.1]pentan-1-yl)-5-(difluoromethyl)-N-methylpyrazine-2-carboxamide] yielded an EC50 of over 2000 nM.
With `O=C(COc1ccc(Cl)c(F)c1)NC12CC(Nc3nccc(-c4ccccc4)n3)(C1)C2` [Compound 363, 2-(4-chloro-3-fluorophenoxy)-N-{3-[(4-phenylpyrimidin-2-yl)amino]bicyclo[1.1.1]pentan-1-yl}acetamide] the EC50 was 1000 to 2000 nM.
`CC(C)c1cc(C(=O)NC23CC(NC(=O)COc4ccc(Cl)c(F)c4)(C2)C3)n(C)n1` [Compound 364, N-{3-[2-(4-chloro-3-fluorophenoxy)acetamido]bicyclo[1.1.1]pentan-1-yl}-1-methyl-3-(propan-2-yl)-1H-pyrazole-5-carboxamide] was tested, and the EC50 was 50 to 250 nM.
With `Cn1nc(C(F)F)cc1C(=O)NC12CC(NC(=O)COc3ccc(Cl)c(F)c3)(C1)C2` [Compound 365, N-{3-[2-(4-chloro-3-fluorophenoxy)acetamido]bicyclo[1.1.1]pentan-1-yl}-3-(difluoromethyl)-1-methyl-1H-pyrazole-5-carboxamide] the EC50 was under 50 nM.
Compound `N#Cc1cccc(C(=O)NC23CC(NC(=O)COc4ccc(Cl)c(F)c4)(C2)C3)c1` [Compound 366, N-{3-[2-(4-chloro-3-fluorophenoxy)acetamido]bicyclo[1.1.1]pentan-1-yl}-3-cyanobenzamide] has an EC50 of 50 to 250 nM.
`Cc1cnoc1C(=O)NC12CC(NC(=O)COc3ccc(Cl)c(F)c3)(C1)C2` [Compound 367, N-{3-[2-(4-chloro-3-fluorophenoxy)acetamido]bicyclo[1.1.1]pentan-1-yl}-4-methyl-1,2-oxazole-5-carboxamide] was tested, and the EC50 was over 2000 nM.
